Measurements taken from patent US11780845B2 (Relay Therapeutics, Inc., priority 2019, dated 2023).
pIC50: −log10 of the molar value.

Key:
FGFR2 = FGFR2 (Homo sapiens (Human), UniProt P21802); experiment: FGFR2 Biochemical Caliper Assay
Description: Compounds of the present invention were also tested in a FGFR2 Biochemical Caliper Assay. Compounds were prepared in 10 mM DMSO solution and serially diluted into 11 concentrations by 3-fold dilution. […] 5 uL of ATP solution (100 uM) was added to start the reaction and the plate was incubated for 90 minutes, then 70 uL of stopping buffer (0.5M EDTA) was added to terminate the reaction. Each well was analyzed using EZ reader.

SNU16 cells = experiment: SNU16 Cancer Cell Line Proliferation Assay; format: cell-based; conditions: Homo sapiens; SNU-16 cells
In short: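 Proliferation read-out: CellTiter Glo chemiluminescence after 96 h compound exposure. Test compounds, serially diluted 3-fold over 11 points from a 10 mM DMSO stock, were added to SNU16 cells plated 24 h earlier at 37 degrees.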

FGFR2, sequence (P21802 22-821): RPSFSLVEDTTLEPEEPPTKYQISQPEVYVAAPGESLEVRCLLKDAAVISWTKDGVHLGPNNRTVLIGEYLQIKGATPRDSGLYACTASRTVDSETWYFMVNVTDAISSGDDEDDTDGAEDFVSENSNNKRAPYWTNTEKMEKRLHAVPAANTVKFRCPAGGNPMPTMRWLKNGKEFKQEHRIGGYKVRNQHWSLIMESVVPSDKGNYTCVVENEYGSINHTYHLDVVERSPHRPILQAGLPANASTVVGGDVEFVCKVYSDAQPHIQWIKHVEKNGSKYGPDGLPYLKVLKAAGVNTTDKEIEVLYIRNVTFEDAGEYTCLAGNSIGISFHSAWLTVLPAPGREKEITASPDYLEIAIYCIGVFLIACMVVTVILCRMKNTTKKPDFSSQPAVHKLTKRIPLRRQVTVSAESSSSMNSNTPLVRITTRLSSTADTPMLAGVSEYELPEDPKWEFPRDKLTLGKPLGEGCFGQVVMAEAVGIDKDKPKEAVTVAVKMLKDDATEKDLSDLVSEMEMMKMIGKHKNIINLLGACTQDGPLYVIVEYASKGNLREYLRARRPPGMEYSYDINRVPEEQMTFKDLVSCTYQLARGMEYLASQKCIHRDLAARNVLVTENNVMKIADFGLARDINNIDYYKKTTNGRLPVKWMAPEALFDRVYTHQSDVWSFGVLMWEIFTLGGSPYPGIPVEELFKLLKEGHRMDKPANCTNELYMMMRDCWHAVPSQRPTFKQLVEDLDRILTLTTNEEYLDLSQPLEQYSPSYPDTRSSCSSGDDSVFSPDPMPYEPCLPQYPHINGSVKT

pIC50 (FGFR2)	pIC50 (SNU16 cells)	SMILES
6.00 to 6.60	6.60 to 7.00	C=C(C)C(=O)Nc1ccc(-c2c(-c3ccc(C(=O)N4CCC[C@@H](OC)C4)cc3)c3c(N)ncnc3n2C)cc1 [Example 388]
> 7.00	≥ 7.00	C=C(C)C(=O)Nc1ccc(-c2c(-c3ccc(C(=O)NCC4CCC4)c(OC)c3)c3c(N)ncnc3n2C)cc1 [Example 391]
4.00 to 6.00	6.00 to 6.60	C=C(C)C(=O)Nc1ccc(-c2c(-c3ccc(Oc4nnc(C)o4)cc3)c3c(N)ncnc3n2C)cc1 [Example 393]
> 7.00	≥ 7.00	C=C(C)C(=O)Nc1ccc(-c2c(-c3ccc(Oc4cccc(C)n4)c(F)c3)c3c(N)ncnc3n2C)cc1 [Example 395]
6.60 to 7.00	≥ 7.00	C=C(C)C(=O)Nc1ccc(-c2c(-c3ccc(C(=O)NCC4CCC4)nc3)c3c(N)ncnc3n2C)cc1 [Example 399]
> 7.00	≥ 7.00	C=C(COC)C(=O)Nc1ccc(-c2c(-c3ccc(Oc4cccc(C)n4)cc3)c3c(N)ncnc3n2C)cc1 [Example 401]
> 7.00	≥ 7.00	C=C(C)C(=O)Nc1ccc(-c2c(-c3ccc(C(=O)N4CCCC4)cc3)c3c(N)ncnc3n2C)c(C)c1 [Example 406]
> 7.00	≥ 7.00	C=C(C)C(=O)Nc1ccc(-c2c(-c3ccc(C(=O)NCC(C)(C)F)cc3)c3c(N)ncnc3n2C)cc1 [Example 408]
> 7.00	≥ 7.00	C=C(C)C(=O)Nc1ccc(-c2c(-c3ccc(C(=O)NCC(C)(C)COC)cc3)c3c(N)ncnc3n2C)cc1 [Example 409]
> 7.00	≥ 7.00	C=C(C)C(=O)Nc1ccc(-c2c(-c3ccc(C(=O)N(C)CC(C)C)cc3)c3c(N)ncnc3n2C)cc1 [Example 410]
6.00 to 6.60	6.00 to 6.60	C=C(C)C(=O)Nc1ccc(-c2c(-c3ccc(C(=O)N(C)CC4(F)COC4)cc3)c3c(N)ncnc3n2C)cc1 [Example 411]
> 7.00	≥ 7.00	C=C(C)C(=O)Nc1ccc(-c2c(-c3ccc(C(=O)NCC4CCC4)c(F)c3)c3c(N)ncnc3n2C)cc1 [Example 413]
> 7.00	≥ 7.00	C=C(C)C(=O)Nc1ccc(-c2c(-c3ccc(Oc4cccc(C)n4)cc3)c3c(N)ncnc3n2C2COC2)cc1 [Example 415]
> 7.00	≥ 7.00	C=C(C)C(=O)Nc1ccc(-c2c(-c3ccc(C(=O)NCC(C)(C)OC)c(F)c3)c3c(N)ncnc3n2C)cc1 [Example 416]
> 7.00	≥ 7.00	C=C(C)C(=O)Nc1ccc(-c2c(-c3ccc(Oc4cccc(COC)n4)cc3)c3c(N)ncnc3n2C)cc1 [Example 417]
> 7.00	≥ 7.00	C=C(C)C(=O)Nc1ccc(-c2c(-c3ccc(Oc4cccc(CO)n4)cc3)c3c(N)ncnc3n2C)cc1 [Example 418]
> 7.00	≥ 7.00	C=C(C)C(=O)Nc1ccc(-c2c(C3=CC[C@@H](C(=O)N4CC5CCC(C5)C4)CC3)c3c(N)ncnc3n2C)cc1 [Example 419]
> 7.00	6.60 to 7.00	C=C(C)C(=O)Nc1ccc(-c2c(-c3cc(F)c(Oc4ncc(C)cn4)c(F)c3)c3c(N)ncnc3n2C)cc1 [Example 423]
> 7.00	≥ 7.00	C=C(C)C(=O)Nc1ccc(-c2c(-c3ccc(Oc4ncc(F)cn4)c(C)c3)c3c(N)ncnc3n2C)c(F)c1 [Example 424]
> 7.00	≥ 7.00	C=C(C)C(=O)Nc1ccc(-c2c(-c3ccc(Oc4nccc(C)n4)cc3F)c3c(N)ncnc3n2C)cc1 [Example 425]
> 7.00	≥ 7.00	C=C(C)C(=O)Nc1ccc(-c2c(-c3ccc(Oc4nccc(C)n4)cc3)c3c(N)ncnc3n2C)c(F)c1 [Example 426]
> 7.00	≥ 7.00	C=C(C)C(=O)Nc1ccc(-c2c(-c3ccc(Oc4ncc(F)cn4)cc3)c3c(N)ncnc3n2C)c(F)c1 [Example 427]
> 7.00	≥ 7.00	C=C(C)C(=O)Nc1ccc(-c2c(-c3ccc(Oc4ncc(F)cn4)cc3)c3c(N)ncnc3n2C)cc1 [Example 428]
6.60 to 7.00	6.60 to 7.00	C=C(C)C(=O)Nc1ccc(-c2c(-c3ccc(Oc4ncc(F)cn4)c(C#N)c3)c3c(N)ncnc3n2C)cc1 [Example 429]
> 7.00	≥ 7.00	C=C(C)C(=O)Nc1ccc(-c2c(-c3ccc(C(=O)N4CCCC4)cc3)c3c(N)ncnc3n2C)c(OC)c1 [Example 433]
> 7.00	≥ 7.00	C=C(C)C(=O)Nc1ccc(-c2c(-c3ccc(C(=O)N4CCCC4)cc3)c3c(N)ncnc3n2C)c(Cl)c1 [Example 434]
> 7.00	6.60 to 7.00	C=C(C)C(=O)Nc1ccc(-c2c(-c3ccc(C(=O)N4CCCC4)cc3)c3c(N)ncnc3n2C)c(C#N)c1 [Example 435]
> 7.00	6.60 to 7.00	C=C(C)C(=O)Nc1ccc(-c2c(-c3ccc(C(=O)N4CCCC4)cc3)c3c(N)ncnc3n2C)c(C(F)F)c1 [Example 436]
